This is an account of results in PubChem BioAssay (NCI).

Some test systems named below: 786-0 renal; IGROV1 ovarian; MDA-MB-231 breast; MDA-MB-435; MOLT-4 leukemia; NCI-H226 lung; NCI/ADR-RES ovarian; OVCAR-4 ovarian; OVCAR-8 ovarian; SNB-19 CNS; NCI-H460 lung.
Holding throughout (assay): NCI-60 cell line screen, 48 h

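Assay format: 96-well plates, 48-hour exposure. GI50: concentration for 50% inhibition of growth. TGI is the concentration that stops growth completely.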 Where only a bound is given, the exact number is not on record here.

Take `CN1CC=C(c2cccn2C)CC1`: the TGI in the assay on 786-0 renal, with IGROV1 ovarian, in the assay on MDA-MB-231 breast, with MDA-MB-435, in the assay on MOLT-4 leukemia and in the assay on NCI-H226 lung was > 100 µM throughout. Besides, the TGI in the assay on NCI/ADR-RES ovarian, with OVCAR-4 ovarian, in the assay with OVCAR-8 ovarian and with SNB-19 CNS was > 100 µM throughout.
Take `O=C1Nc2ccccc2/C1=C\c1c(-c2ccccc2)nc2n1CCS2`: the TGI in the assay with 786-0 renal is 45.5 µM; in the assay on IGROV1 ovarian, > 100 µM; in the assay with MDA-MB-231 breast, 47 µM; in the assay on MDA-MB-435, 39.8 µM; in the assay on MOLT-4 leukemia, 81 µM; with NCI-H460 lung it was 41.9 µM. Besides, the TGI is 68.1 µM in the assay on NCI/ADR-RES ovarian, > 100 µM with OVCAR-4 ovarian, > 100 µM in the assay on OVCAR-8 ovarian and 91 µM with SNB-19 CNS.
Consider `CSC1=C(C#N)C(=O)N(c2ccc(C)cc2)C(=O)C1C#N` (stereo not drawn), for which the TGI in the assay on 786-0 renal, in the assay with IGROV1 ovarian, with MDA-MB-231 breast, in the assay on MDA-MB-435, in the assay with MOLT-4 leukemia and with NCI-H226 lung was > 100 µM each time. In addition, the TGI in the assay on NCI-H460 lung, in the assay with OVCAR-4 ovarian and with SNB-19 CNS was > 100 µM each time.
In the case of `Cc1c(-c2nc(N)c(C#N)c(N)c2C#N)c(=O)oc2ccccc12`, the TGI in the assay on 786-0 renal, in the assay on IGROV1 ovarian, in the assay on MDA-MB-231 breast, in the assay on NCI-H226 lung, in the assay with NCI-H460 lung and in the assay with NCI/ADR-RES ovarian was > 100 µM throughout. The TGI with OVCAR-4 ovarian, in the assay on OVCAR-8 ovarian and in the assay with SNB-19 CNS was > 100 µM in each case.
On to `NCCCn1c2c(c3ccc([N+](=O)[O-])cc3c1=O)C(=O)c1cc(F)ccc1-2`, for which the GI50 in the assay with MDA-MB-231 breast is 0.422 µM; in the assay on MDA-MB-435 it was 0.0762 µM; in the assay with MOLT-4 leukemia it was < 0.01 µM; in the assay on NCI/ADR-RES ovarian, 0.0412 µM; with SNB-19 CNS it was 0.0589 µM. Further, the TGI came to 1.24 µM in the assay on MDA-MB-231 breast, 0.923 µM in the assay on MDA-MB-435, 1.2 µM in the assay with NCI/ADR-RES ovarian and 1.52 µM in the assay on SNB-19 CNS.
Consider `CC(CNC(=O)c1ccccc1)(CNC(=O)c1ccccc1)[N+](=O)[O-]`, for which the TGI in the assay on 786-0 renal, in the assay with IGROV1 ovarian, in the assay with MDA-MB-231 breast, in the assay on MDA-MB-435, in the assay with MOLT-4 leukemia and with NCI-H226 lung was > 100 µM in each case. The TGI with NCI-H460 lung is > 100 µM; in the assay on NCI/ADR-RES ovarian, > 100 µM; with OVCAR-8 ovarian, > 100 µM; in the assay with SNB-19 CNS, 73.3 µM.
`CN1c2ccccc2C(=O)NC12CCNCC2`: the TGI with 786-0 renal, in the assay on IGROV1 ovarian, in the assay on MDA-MB-435, with MOLT-4 leukemia, in the assay on NCI-H226 lung and in the assay with NCI-H460 lung was > 100 µM in each case. The TGI in the assay on NCI/ADR-RES ovarian, in the assay on OVCAR-4 ovarian, in the assay with OVCAR-8 ovarian and in the assay with SNB-19 CNS was > 100 µM in each case.
As for `Cc1cc(C)c(NC(=O)/C=C/c2ccccc2)c(C)c1`, the TGI in the assay with IGROV1 ovarian, in the assay on MDA-MB-435, with MOLT-4 leukemia, with NCI-H226 lung, with NCI-H460 lung and in the assay on NCI/ADR-RES ovarian was > 100 µM in each case. Besides, the TGI in the assay on OVCAR-4 ovarian, in the assay with OVCAR-8 ovarian and with SNB-19 CNS was > 100 µM in each case.
In the case of `CC(C)COP(C)(=O)C(N)(C(F)(F)F)C(F)(F)F` (stereo not drawn), the TGI in the assay with 786-0 renal, in the assay with IGROV1 ovarian, with MDA-MB-231 breast, in the assay with MDA-MB-435, in the assay with MOLT-4 leukemia and with NCI-H226 lung was > 100 µM each time. The TGI with NCI/ADR-RES ovarian, with OVCAR-4 ovarian and in the assay on OVCAR-8 ovarian was > 100 µM each time.
With `C/C(=N\O)C1CC2C=C(C#N)C1N(Cc1ccccc1)C2` (stereo not drawn), the TGI in the assay on 786-0 renal, in the assay with MDA-MB-231 breast, in the assay on MDA-MB-435, in the assay with MOLT-4 leukemia, with NCI-H226 lung and with NCI-H460 lung was > 100 µM each time. Moreover, the TGI in the assay on NCI/ADR-RES ovarian, in the assay with OVCAR-8 ovarian and in the assay on SNB-19 CNS was > 100 µM in each case.
Consider `CCc1ccc(Nc2cc(=O)n(C)c(SCc3ccccc3)n2)cc1`, for which the TGI was 34.4 µM in the assay with 786-0 renal; > 100 µM with IGROV1 ovarian; > 100 µM in the assay on MDA-MB-231 breast; > 100 µM in the assay on MDA-MB-435; > 100 µM with MOLT-4 leukemia; > 100 µM with NCI-H226 lung. Moreover, the TGI in the assay on NCI/ADR-RES ovarian, in the assay with OVCAR-8 ovarian and in the assay on SNB-19 CNS was > 100 µM each time.
Take `CN1C(C)(C)CC(=O)C(Br)C1(C)C` (stereo not drawn): the TGI in the assay on 786-0 renal, with IGROV1 ovarian, in the assay with MDA-MB-435, in the assay with MOLT-4 leukemia, in the assay on NCI-H226 lung and with NCI-H460 lung was > 100 µM in each case. In addition, the TGI in the assay with NCI/ADR-RES ovarian, in the assay on OVCAR-4 ovarian, in the assay on OVCAR-8 ovarian and in the assay on SNB-19 CNS was > 100 µM each time.
On to `COCC12CCC(OC)C34C5CC6(O)C(OC)C=C(C5C6OC(=O)c5ccccc5)C(C(OC)C13)C4N(C)C2` (stereo not drawn), for which the TGI with 786-0 renal, in the assay on IGROV1 ovarian, in the assay with MDA-MB-231 breast, with MDA-MB-435, with NCI-H460 lung and in the assay with NCI/ADR-RES ovarian was > 100 µM in each case. The TGI in the assay with OVCAR-4 ovarian, in the assay on OVCAR-8 ovarian and in the assay on SNB-19 CNS was > 100 µM throughout.
For the compound `C/C1=C/C[C@@H](/C(C)=C/c2csc(C)n2)OC(=O)C[C@H](O)C(C)(C)C(=O)[C@H](C)[C@@H](O)[C@@H](C)CCC1`, the TGI with 786-0 renal was 0.228 µM; in the assay with IGROV1 ovarian, 0.215 µM; with MOLT-4 leukemia, 0.394 µM; in the assay on NCI-H226 lung, 0.214 µM; in the assay on NCI-H460 lung, 0.23 µM; in the assay with NCI/ADR-RES ovarian, 0.000238 µM. In addition, the TGI came out at 0.472 µM with OVCAR-4 ovarian, 0.295 µM in the assay with OVCAR-8 ovarian and 0.189 µM with SNB-19 CNS.
Take `Oc1c(Cl)c(Cl)c(O)c(CCNc2nccs2)c1Cl`: the TGI with 786-0 renal amounted to 33.5 µM; with IGROV1 ovarian, 17.9 µM; in the assay with MDA-MB-231 breast it was 2.16 µM; in the assay with MDA-MB-435 it was 41.8 µM; in the assay on MOLT-4 leukemia, 94.3 µM; in the assay on NCI-H460 lung, 41.1 µM. Besides, the TGI was 50.5 µM in the assay on NCI/ADR-RES ovarian, > 100 µM in the assay on OVCAR-4 ovarian, 47.2 µM in the assay with OVCAR-8 ovarian and 44.1 µM with SNB-19 CNS.
Turning to `COC(=O)[C@@H](OC(C)=O)[C@@H](OC(C)=O)c1nnc2ccc(Cl)nn12`, the TGI in the assay on 786-0 renal, in the assay with IGROV1 ovarian, with MDA-MB-231 breast, in the assay on MDA-MB-435, with MOLT-4 leukemia and in the assay with NCI-H460 lung was > 100 µM throughout. In addition, the TGI in the assay with NCI/ADR-RES ovarian, in the assay on OVCAR-4 ovarian, in the assay on OVCAR-8 ovarian and in the assay on SNB-19 CNS was > 100 µM in each case.
On to `CCCn1c(=O)c2nn3c(=O)n(CCC)c(=O)c3nn2c1=O`, for which the TGI in the assay on 786-0 renal, with IGROV1 ovarian, with MDA-MB-435, in the assay with MOLT-4 leukemia, in the assay on NCI-H226 lung and in the assay on NCI-H460 lung was > 100 µM in each case. The TGI with NCI/ADR-RES ovarian, with OVCAR-4 ovarian, in the assay with OVCAR-8 ovarian and with SNB-19 CNS was > 100 µM throughout.
`O=C1CC(C(OCc2ccccc2)C(OCc2ccccc2)C(OCc2ccccc2)C(COCc2ccccc2)OCc2ccccc2)CC(=O)N1` (stereo not drawn): the TGI with 786-0 renal, with IGROV1 ovarian, in the assay with MDA-MB-435, in the assay with MOLT-4 leukemia, in the assay on NCI-H460 lung and in the assay with NCI/ADR-RES ovarian was > 100 µM in each case. Also, the TGI in the assay on OVCAR-4 ovarian, in the assay on OVCAR-8 ovarian and with SNB-19 CNS was > 100 µM in each case.
With `O=C(Oc1c(Br)cc(Br)cc1C(=O)Oc1ccccc1)C(=O)Oc1c(Br)cc(Br)cc1C(=O)Oc1ccccc1`, the TGI in the assay on 786-0 renal was 50.3 µM; with IGROV1 ovarian, > 100 µM; in the assay with MDA-MB-231 breast it was 30.6 µM; in the assay with MDA-MB-435, > 100 µM; in the assay with MOLT-4 leukemia it was 55.1 µM; in the assay with NCI-H226 lung it was 46 µM. In addition, the TGI is > 100 µM with NCI-H460 lung, > 100 µM in the assay on NCI/ADR-RES ovarian, > 100 µM in the assay with OVCAR-8 ovarian and 64.8 µM with SNB-19 CNS.
With `CC(C)OC(=O)NNc1cccc(Cl)c1`, the TGI in the assay on 786-0 renal, in the assay with MDA-MB-231 breast, in the assay with MDA-MB-435, in the assay with MOLT-4 leukemia, with NCI-H226 lung and with NCI-H460 lung was > 100 µM in each case. The TGI in the assay with NCI/ADR-RES ovarian, in the assay with OVCAR-8 ovarian and in the assay with SNB-19 CNS was > 100 µM in each case.
Take `O=C1CCCC2=C1CC1=C(CCCC1=O)N2c1ccc([N+](=O)[O-])cc1`: the TGI in the assay on 786-0 renal, in the assay on IGROV1 ovarian, in the assay on MOLT-4 leukemia, in the assay on NCI-H226 lung, in the assay with NCI-H460 lung and in the assay with NCI/ADR-RES ovarian was > 100 µM each time. Moreover, the TGI in the assay with OVCAR-4 ovarian, in the assay with OVCAR-8 ovarian and with SNB-19 CNS was > 100 µM in each case.
